Source: US9394300B2, “Quinolone derivatives” (Cadila Healthcare Limited, priority 2012, dated 2016)

Tests used:
[1] = system: C57 Mice; assay: Estimating hemoglobin levels in mice; type: in vivo; details: oral once daily for 7 consecutive days at 20 mg/kg, whole blood on 8th day
Experimental: (2) Protocol for Estimating Hemoglobin Levels in Mice
C57 mice were administered compounds of the present invention at 10 ml/kg by oral route daily once in the morning for 7 consecutive days at 20 mg/kg. On 8th day animals were bled by retro-orbital puncture under light ether anesthesia in microfuge tubes containing 2% EDTA (10 μl/100 μl of blood) for whole blood. Hemoglobin, Reticulocyte count and RBC count were measured using standard procedures.

[2] = system: C57 Mice; assay: Estimating circulating EPO release in mice (plasma EPO by mouse EPO ELISA); type: in vivo; details: plasma six hours after administration, EPO in control = 62 ng/mL
Experimental: (1) Protocol for Estimating Circulating EPO Release in Mice
C57 Mice were administered various doses (10 mg/kg, 30 mg/kg, 50 mg/kg, 100 mg/kg) of compounds of the present invention by oral gavage at 10 ml/kg. Six hours after compound administration, mice were bled by retro-orbital puncture, under light ether anesthesia in microfuge tubes containing 2% EDTA (10 μl/100 μl of blood). Plasma was separated and analyzed for EPO content by mouse EPO ELISA.

Row | Compound | Hemoglobin (g/dL) 20 mg/kg compound [1] [g/dL] | EPO (ng/mL) oral gavage 10 mg/kg [2] [ng/mL] | EPO (ng/mL) oral gavage 30 mg/kg [2] [ng/mL] | EPO (ng/mL) oral gavage 50 mg/kg ([2]; oral gavage 50 mg/kg) [ng/mL]
1 | O=C(O)CNC(=O)c1c(O)c2ccccc2n(OCC2CC2)c1=O [Example 2, 2-(1-(cyclopropylmethoxy)-4-hydroxy-2-oxo-1,2-dihydroquinoline-3-carboxamido)acetic acid] | 16.3 | 396 | 4822 | 
2 | C=CCOn1c(=O)c(C(=O)NCC(=O)O)c(O)c2ccccc21 [Example 15, 2-(1-(allyloxy)-4-hydroxy-2-oxo-1,2-dihydroquinoline-3-carboxamido)acetic acid] | 13.2 | 315 |  | 4269
3 | CCCOn1c(=O)c(C(=O)NCC(=O)O)c(O)c2ccccc21 [Example 21, 2-(4-hydroxy-2-oxo-1-propoxy-1,2-dihydroquinoline-3-carboxamido) acetic acid] | 15.8 | 190 | 6234 | 
